Source: US4783443A, “Amino acyl cephalosporin derivatives” (The University of Chicago, priority 1986, dated 1988)

Assays:
[1] = tested on: Enterobacter areogenes; assay: Minimum inhibitory concentration (MIC); type: cell-based; conditions: Gram-negative
Source text: (§1) The antibacterial effects of compounds of the invention have been assessed by determination of the minimum inhibitory concentration (M.I.C.) value against a variety of Gram-negative and -positive bacteria. The microbial susceptibility data for four compounds, together with those for the antibacterial dipeptide beta-Cl-LAla-beta-Cl-LAla, are given in Table I.
(§2) in uM to facilitate a meaningful comparison of the approximate MICs among
(§3) the tested compounds; an appreciation of the MIC values in ug/mL can be
(§4) obtained by multiplying each value (μM) by 0.55

[2] = tested on: Enterobacter cloacae; assay: Minimum inhibitory concentration (MIC); type: cell-based; conditions: Gram-negative
Source text: as §1, §2, §3, §4

[3] = tested on: Escherichia coli CR; assay: Minimum inhibitory concentration (MIC); type: cell-based; conditions: Escherichia coli CR
Source text: as §1, §2, §3, §4

[4] = tested on: Escherichia coli JSR-O; assay: Minimum inhibitory concentration (MIC); type: cell-based; conditions: Escherichia coli JSR-O; parental strain
Source text: as §1, §2, §3, §4

[5] = tested on: Hemophilus influenzae 236; assay: Minimum inhibitory concentration (MIC); type: cell-based
Source text: as §1, §2, §3, §4

[6] = tested on: Hemophilus influenzae 238; assay: Minimum inhibitory concentration (MIC); type: cell-based
Source text: as §1, §2, §3, §4

[7] = tested on: Hemophilus influenzae 487; assay: Minimum inhibitory concentration (MIC); type: cell-based; conditions: possesses a betalactamase
Source text: as §1, §2, §3, §4

[8] = tested on: Klebsiella pneumoniae; assay: Minimum inhibitory concentration (MIC); type: cell-based; conditions: Gram-negative
Source text: as §1, §2, §3, §4

[9] = tested on: Morganella morganii; assay: Minimum inhibitory concentration (MIC); type: cell-based; conditions: Gram-negative
Source text: as §1, §2, §3, §4

[10] = tested on: Psuedomonas aeruginosa; assay: Minimum inhibitory concentration (MIC); type: cell-based; conditions: Gram-negative
Source text: as §1, §2, §3, §4

[11] = tested on: Salmonella typhimurium LT 2; assay: Minimum inhibitory concentration (MIC); type: cell-based; conditions: Gram-negative
Source text: as §1, §2, §3, §4

[12] = tested on: Salmonella typhimurium; assay: Minimum inhibitory concentration (MIC); type: cell-based; conditions: Gram-negative
Source text: as §1, §2, §3, §4

[13] = tested on: Serratia marcescens; assay: Minimum inhibitory concentration (MIC); type: cell-based; conditions: Gram-negative
Source text: as §1, §2, §3, §4

[14] = tested on: Shigella flexneri; assay: Minimum inhibitory concentration (MIC); type: cell-based; conditions: Gram-negative
Source text: as §1, §2, §3, §4

[15] = tested on: Staphylococcus aureus H-2690-8^R; assay: Minimum inhibitory concentration (MIC); type: cell-based; conditions: possesses a betalactamase
Source text: as §1, §2, §3, §4

[16] = tested on: Staphylococcus aureus PSL-13 Pen^R; assay: Minimum inhibitory concentration (MIC); type: cell-based; conditions: possesses a betalactamase
Source text: as §1, §2, §3, §4

[17] = tested on: Staphylococcus aureus PSL-14 Pen^R; assay: Minimum inhibitory concentration (MIC); type: cell-based; conditions: possesses a betalactamase
Source text: as §1, §2, §3, §4

[18] = tested on: Staphylococcus aureus PSL-15 Pen^R; assay: Minimum inhibitory concentration (MIC); type: cell-based; conditions: possesses a betalactamase
Source text: as §1, §2, §3, §4

[19] = tested on: Staphylococcus aureus PSL-16 Pen^R; assay: Minimum inhibitory concentration (MIC); type: cell-based; conditions: possesses a betalactamase
Source text: as §1, §2, §3, §4

[20] = tested on: Staphylococcus aureus T-4624-8 Pen^R; assay: Minimum inhibitory concentration (MIC); type: cell-based; conditions: possesses a betalactamase
Source text: as §1, §2, §3, §4

[21] = tested on: Streptococcus agalactiae; assay: Minimum inhibitory concentration (MIC); type: cell-based; conditions: Gram positive
Source text: as §1, §2, §3, §4

[22] = tested on: Streptococcus faecalis; assay: Minimum inhibitory concentration (MIC); type: cell-based; conditions: Streptococcus faecalis; Gram positive
Source text: as §1, §2, §3, §4

[23] = tested on: Escherichia coli JSR-O Cl-Pep^R; assay: Minimum inhibitory concentration (MIC); type: cell-based; conditions: Escherichia coli JSR-O Cl-Pep^R; selected for resistance to the peptide (f)
Source text: as §1, §2, §3, §4
^(g) This ia an E. coli JSRO strain selected for resistance to the
A comparison of the data for E. coli strains JSR-O and JSR-O Cl-Pep^R is of special interest. E. coli Cl-Pep^R is an E. coli JSR-O mutant which was selected for resistance to the dipeptide (f). […] Note that the MIC values for (d) and (e) against E. coli Cl-Pep^R (100 and 50 μM, respectively) are quite similar.

[24] = tested on: Corynebacterium JKM-4754; assay: Minimum inhibitory concentration (MIC); type: cell-based; conditions: Corynebacterium JKM-4754; resistant to cephalothin
Source text: as §1, §2, §3, §4
(§5) ^(j) Resistant to cephalothin (MIC >200 uM);

[25] = tested on: Corynebacterium JKR-2285; assay: Minimum inhibitory concentration (MIC); type: cell-based; conditions: Corynebacterium JKR-2285; resistant to cephalothin
Source text: as §1, §2, §3, §4, §5

[26] = tested on: Escherichia coli Ceph^R; assay: Minimum inhibitory concentration (MIC); type: cell-based; conditions: Escherichia coli Ceph^R; resistant to cephalothin
Source text: as §1, §2, §3, §4, §5

[27] = tested on: Staphylococcus epidermidis (P^R M^R); assay: Minimum inhibitory concentration (MIC); type: cell-based; conditions: no strain number
Source text: as §1, §2, §3, §4
(§6) ^(k) P and M refer to penicillin and methicillin, respectively.

[28] = tested on: Staphylococcus epidermidis 1239(P^R M^R); assay: Minimum inhibitory concentration (MIC); type: cell-based
Source text: as §1, §2, §3, §4, §6

[29] = tested on: Staphylococcus epidermidis MO1554(P^S M^S); assay: Minimum inhibitory concentration (MIC); type: cell-based; conditions: Staphylococcus epidermidis MO1554 (penicillin- and methicillin-sensitive, P^S M^S)
Source text: as §1, §2, §3, §4, §6

[30] = tested on: Gram-negative and -positive bacteria; assay: Antibacterial activity, general trends of the MIC panel of Table I; type: cell-based
Source text: as §1

[31] = tested on: Gram-negative and -positive bacteria; conditions: Cheung et al., 1983; cited from earlier work

In the case of “Betachloro-L-Ala-beta-chloro-L-Ala [(f), reference compound]”, the “Minimum Inhibitory Concentration” value [1] is reported as 25 µM, the “Minimum Inhibitory Concentration” value [2] is reported as 12.5 µM and the “Minimum Inhibitory Concentration” value [3] is reported as 12.5 µM. For the same substance, the “Minimum Inhibitory Concentration” value [4] was 12.5 µM, the “Minimum Inhibitory Concentration” value [5] was over 200 µM and the “Minimum Inhibitory Concentration” value [6] was 12.5 µM. The “Minimum Inhibitory Concentration” value [7] was at most 0.78 µM, the “Minimum Inhibitory Concentration” value [8] was over 200 µM and the “Minimum Inhibitory Concentration” value [9] was 200 µM. The “Minimum Inhibitory Concentration” value [10] was over 200 µM, the “Minimum Inhibitory Concentration” value [11] was 200 µM and the “Minimum Inhibitory Concentration” value [12] was 200 µM. For the same substance, the “Minimum Inhibitory Concentration” value [13] was over 200 µM, the “Minimum Inhibitory Concentration” value [14] was 200 µM and the “Minimum Inhibitory Concentration” value [15] was 1.56 µM. The “Minimum Inhibitory Concentration” value [16] was 1.56 µM, the “Minimum Inhibitory Concentration” value [17] was 12.5 µM and the “Minimum Inhibitory Concentration” value [18] was 12.5 µM. The “Minimum Inhibitory Concentration” value [19] was 12.5 µM, the “Minimum Inhibitory Concentration” value [20] was 1.56 µM and the “Minimum Inhibitory Concentration” value [21] was at most 0.78 µM. For the same substance, the “Minimum Inhibitory Concentration” value [22] was 6.25 µM, the “Minimum Inhibitory Concentration” value [23] was over 200 µM and the “Minimum Inhibitory Concentration” value [24] was 0.78 µM. For the same substance, the “Minimum Inhibitory Concentration” value [25] was 0.78 µM, the “Minimum Inhibitory Concentration” value [26] was 3.12 µM and the “Minimum Inhibitory Concentration” value [27] was at most 0.78 µM. For the same substance, the “Minimum Inhibitory Concentration” value [28] was at most 0.78 µM, the “Minimum Inhibitory Concentration” value [29] was at most 0.78 µM and the insensitivity / resistance ([30]; P. aeruginosa, S. marcescens and K. pneumoniae) was “inherently insensitive”. The sensitivity ([30]; S. aureus strains, Corynebacterium JK strains, S. faecalis, H. influenzae 487, E. coli JSR-O and E. cloacae) was “sensitive”, the sensitivity ([30]; S. epidermidis 1239 P^R M^R and M-1554 P^S M^S) was “exquisitely sensitive” and the “antibacterial potency of dipeptide versus beta-Cl-LAla” value [31] was “consistently and dramatically more potent an antibacterial agent than is beta-Cl-LAla alone”.
